This is an account of results in patent publication US7524844B2, “Dipeptidyl peptidase IV inhibitors, process for their preparation and compositions containing them” (Glenmark Pharmaceuticals S.A., priority 2004, dated 2009).

The assay concerns the target T1, human recombinant Dipeptidyl peptidase IV enzyme (DPP-IV) (Homo sapiens, UniProt P27487).
T1 construct: purchased R&D Systems Inc. of Minneapolis, Minn
As to the kind of experiment: in-vitro DPP-IV assay (cleavage of AMC from Gly-Pro-AMC). In kind it is biochemical. Particulars: human recombinant DPP-IV, Gly-Pro-AMC substrate, 30° C., 30 minutes; read-out: DPP-IV inhibition using human recombinant DPP-IV enzyme, IC50. As for the experimental part: DPP-IV activity was determined by the cleavage rate of 7-amino-4-methyl coumarin (AMC) from the synthetic substrate Glycyl-Prolyl-AMC. In brief, the assay was conducted by adding 10 ng of human recombinant Dipeptidyl peptidase IV enzyme (DPP-IV, available commercially from R&D Systems Inc. of Minneapolis, Minn.) in 50 μl of the assay buffer (25 mM Tris, pH 7.4, 140 mM NaCl, 10 mM KCl, 1% BSA) to 96 well black flat bottom microtiter plates. The reaction was initiated by adding 50 μl of 100 μM substrate Gly-Pro-AMC. The incubation was carried out in the kinetic mode at 30° C. for 30 minutes. Fluorescence was measured using Fluorostar with an excitation filter of 380 nm and emission filter of 460 nm. Test compounds and solvent controls were added as 1 μl additions. A standard curve of free amino methyl coumarin (AMC) was generated using 0-100 μM AMC in the assay buffer. The curve generated, which was linear was used for the interpolation of catalytic activity.
Test compounds dissolved in DMSO at 5-6 concentrations were tested in duplicate along with the solvent control and blank samples. Percent inhibition was calculated at each concentration with respect to the solvent control sample (no test compound added). […]

Structures can show the parent of a compound that is named as a salt.

T1 sequence (P27487 whole entry): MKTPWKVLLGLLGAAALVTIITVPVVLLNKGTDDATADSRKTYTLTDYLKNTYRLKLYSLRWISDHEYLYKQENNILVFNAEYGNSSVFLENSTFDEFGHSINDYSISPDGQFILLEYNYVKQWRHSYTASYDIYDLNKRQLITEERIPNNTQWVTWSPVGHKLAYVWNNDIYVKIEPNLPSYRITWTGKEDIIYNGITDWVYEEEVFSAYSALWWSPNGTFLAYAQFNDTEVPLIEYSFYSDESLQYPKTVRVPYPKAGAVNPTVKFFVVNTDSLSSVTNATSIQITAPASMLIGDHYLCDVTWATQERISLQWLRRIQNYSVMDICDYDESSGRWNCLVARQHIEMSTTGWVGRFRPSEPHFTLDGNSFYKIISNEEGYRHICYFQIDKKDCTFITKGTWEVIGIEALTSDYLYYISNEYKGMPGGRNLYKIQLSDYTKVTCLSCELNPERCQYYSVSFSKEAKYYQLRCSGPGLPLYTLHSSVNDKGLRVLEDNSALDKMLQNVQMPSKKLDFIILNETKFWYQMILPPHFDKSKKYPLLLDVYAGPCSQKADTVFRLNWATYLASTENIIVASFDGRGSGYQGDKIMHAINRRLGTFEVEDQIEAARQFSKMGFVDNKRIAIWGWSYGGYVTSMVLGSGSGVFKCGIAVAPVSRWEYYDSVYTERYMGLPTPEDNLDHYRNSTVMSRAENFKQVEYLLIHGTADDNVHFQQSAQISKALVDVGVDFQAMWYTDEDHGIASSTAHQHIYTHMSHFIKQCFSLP

The term IC50 denotes the concentration that inhibits the measured activity by half. Consider `N#CC[C@@H]1CC[C@H](NCC(=O)N2C[C@@H](F)C[C@H]2C#N)C1` [Example-8, (2S,4S)-1-{2-1[(3R,1S)-3-Cyanomethylcyclopentylamino]acetyl}-4-fluoro-2-pyrro-idinecarbonitrile], for which the IC50 was 4.36 nM.
`N#CCC[C@H]1CC[C@@H](NCC(=O)N2C[C@@H](F)C[C@H]2C#N)C1` [Example-9, 3-((1R,3R)-3-{2-[(2S,4S)-2-Cyano-4-fluoropyrrolidin-1-yl]-2-oxoethylamino}-cyclopentyl)propanenitrile]: the half-inhibitory concentration (IC50) turned out to be 3.93 nM.
As for `N#C[C@@H]1CCCN1C(=O)CN[C@@H]1CC[C@H](CNC(=O)Nc2ccccc2)C1` [Example-13, N1-Phenyl-N3-((1S,3R)-3-{2-[(2S)-2-cyanopyrrolidin-1-yl]-2-oxoethylamino}-cyclopentylmethyl)urea], the half-maximal inhibitory concentration (IC50) was 31.9 nM.
Take `N#C[C@@H]1CCCN1C(=O)CN[C@@H]1CC[C@H](CNC(=O)Nc2ccc(F)cc2F)C1` [Example-14, N1-(2,4-Difluorophenyl)-N3-((1S,3R)-3-{2-[(2S)-2-cyanopyrrolidin-1-yl]-2-oxoethyl-amino}cyclopentylmethyl)urea]: the IC50 was 26.3 nM.
As to `N#C[C@@H]1C[C@H](F)CN1C(=O)CN[C@@H]1CC[C@H](Cc2ccccc2)C1` [Example-15, (2S,4S)-1-{2-[(1R,3R)-3-Benzylcyclopentylamino]acetyl}-4-fluoropyrrolidin-2-yl cyanide], the IC50 was found to be 6.06 nM.
In the case of `COc1ccccc1C[C@H]1CC[C@@H](NCC(=O)N2C[C@@H](F)C[C@H]2C#N)C1` [Example-16] it was 17.7 nM.
Next, `N#C[C@@H]1CCCN1C(=O)CN[C@@H]1CC[C@H](CN2CCCS2(=O)=O)C1` [Example-18, (2S)-1-{2-[(3S,1R)-3-(1,1-Dioxo-2-isothiazolidinylmethyl)cyclopentylamino]acetyl}-pyrrolidine-2-carbonitrile]: 29.4 nM; `N#C[C@@H]1CCCN1C(=O)CN[C@@H]1CC[C@H](CN2CCOCC2)C1` [Example-19, (2S)-1-{2-[(3S,1R)-3-Morpholinomethylcyclopentylamino]acetyl}pyrrolidine-2-carbonitrile]: 20.1 nM; `N#C[C@@H]1CCCN1C(=O)CN[C@H]1CC[C@@H](CN2CCN(c3ccccc3)CC2)C1` [Example-23, (2S)-1-{2-[(1S,3R)-3-(4-Phenylpiperazinomethyl)cyclopentylamino]acetyl}-pyrrolidine-2-carbonitrile]: 32 nM.
On to `Cc1ccc(C)n1C[C@H]1CC[C@@H](NCC(=O)N2CCC[C@H]2C#N)C1` [Example-24, (2S)-1-{2-[(3S,1R)-3-(2,5-Dimethyl-1H-1-pyrrolylmethyl)cyclopentylamino}acetyl}-pyrrolidine-2-carbonitrile], for which the IC50 was determined as 4.19 nM.
Consider `Cc1ccc(C)n1C[C@H]1CC[C@@H](NCC(=O)N2C[C@@H](F)C[C@H]2C#N)C1` [Example-25, (2S,4S)-1-{2-[(3S,1R)-3-(2,5-Dimethyl-1H-1-pyrrolylmethyl)cyclopentylamino]-acetyl}-4-fluoropyrrolidine-2-carbonitrile], for which the IC50 worked out at 7.4 nM.
Consider `N#Cc1cccn1C[C@H]1CC[C@@H](NCC(=O)N2CCC[C@H]2C#N)C1` [Example-26, 1-((1S,3R)-3-{2-[(2S)-2-Cyanopyrrolidin-1-yl]-2-oxoethylamino}cyclopentylmethyl)-1H-pyrrole-2-carbonitrile], for which the IC50 was 5.94 nM.
In the case of `N#C[C@@H]1CCCN1C(=O)CN[C@H]1CC[C@@H](Cn2cccn2)C1` [Example-28, (2S)-1-{2-[(1S,3R)-3-(1H-Pyrazol-1-ylmethyl)cyclopentylamino]acetyl}pyrrolidine-2-carbonitrile] it was 37.3 nM; in that of `N#C[C@@H]1CCCN1C(=O)CN[C@@H]1CC[C@H](Cn2ccnc2)C1` [Example-29, (2S)-1-{2-[(3S,1R)-3-(1H-1-Imidazolylmethyl)cyclopentylamino]acetyl}pyrrolidine-2-carbonitrile], 11.2 nM; in that of `N#Cc1ncn(C[C@H]2CC[C@@H](NCC(=O)N3CCC[C@H]3C#N)C2)c1C#N` [Example-34, 1-((1S,3R)-3-{2-[(2S)-2-Cyanopyrrolidin-1-yl]-2-oxoethylamino}cyclopentylmethyl)-1H-4,5-imidazoledicarbonitrile], 9.36 nM.
With `N#C[C@@H]1CCCN1C(=O)CN[C@@H]1C=C[C@H](Cn2cncn2)C1` [Example-35], the IC50 was determined as 68.3 nM.
For `N#C[C@@H]1CCCN1C(=O)CN[C@@H]1CC[C@H](Cn2cncn2)C1` [Example-37, (2S)-1-{2-[(3S,1R)-3-(1H-1,2,4-Triazol-1-ylmethyl)cyclopentylamino]acetyl}-pyrrolidine-2-carbonitrile], the concentration for half-maximal inhibition (IC50) stood at 5.1 nM.
In the case of `N#C[C@@H]1CCCN1C(=O)CN[C@@H]1CC[C@H](Cn2cncn2)C1` [Example-39, (2S)-1-{2-[(3S,1R)-3-(1H-1,2,4-Triazol-1-ylmethyl)cyclopentylamino]acetyl}-pyrrolidine-2-carbonitrile maleate] it was 5.05 nM; in that of `N#C[C@@H]1CCCN1C(=O)CN[C@H]1CC[C@@H](Cn2cncn2)C1` [Example-40, (2S)-1-{2-[(3R,1S)-3-(1H-1,2,4-Triazol-1-ylmethyl)cyclopentylamino]acetyl}-pyrrolidine-2-carbonitrile], 12.5 nM.
For the molecule `N#C[C@@H]1C[C@H](F)CN1C(=O)CN[C@@H]1CC[C@H](Cn2cncn2)C1` [Example-42, (2S,4S)-1-{2-[(3S,1R)-3-(1H-1,2,4-Triazol-1-ylmethyl)cyclopentylamino]acetyl}-4-fluoropyrrolidine-2-carbonitrile], the 50% inhibitory concentration (IC50) came out at 1.61 nM.
For `N#C[C@@H]1C[C@H](F)CN1C(=O)CN[C@@H]1CC[C@H](Cn2cncn2)C1` [Example-43, (2S,4S)-1-{2-[(3S,1R)-3-(1H-1,2,4-Triazol-1-ylmethyl)cyclopentylamino]acetyl}-4-fluoropyrrolidine-2-carbonitrile hydrochloride], the 50% inhibitory concentration (IC50) came out at 6.25 nM.
For the molecule `N#C[C@@H]1C[C@H](F)CN1C(=O)CN[C@@H]1CC[C@H](Cn2cncn2)C1` [Example-44, (2S,4S)-1-{2-1(3S,1R)-3-(1H-1,2,4-Triazol-1-ylmethyl)cyclopentylamino]acetyl}-4-fluoropyrrolidine-2-carbonitrile methanesulfonate], the IC50 was 3.73 nM.
Next, `N#C[C@@H]1C[C@H](F)CN1C(=O)CN[C@@H]1CC[C@H](Cn2cncn2)C1` [Example-45, (2S,4S)-1-{2-[(3S,1R)-3-(1H-1,2,4-Triazol-1-ylmethyl)cyclopentylamino]acetyl}-4-fluoropyrrolidine-2-carbonitrile oxalate]: 4.63 nM; `N#C[C@@H]1C[C@H](F)CN1C(=O)CN[C@@H]1CC[C@H](Cn2cncn2)C1` [Example-46, (2S,4S)-1-{2-[(3S,1R)-3-(1H-1,2,4-Triazol-1-ylmethyl)cyclopentylamino]acetyl}-4-fluoropyrrolidine-2-carbonitrile succinate]: 4.37 nM; `N#C[C@@H]1C[C@H](F)CN1C(=O)CN[C@@H]1CC[C@H](Cn2cncn2)C1` [Example-49, (2S,4S)-1-{2-[(3S,1R)-3-(1H-1,2,4-Triazol-1-ylmethyl)cyclopentylamino]acetyl}-4-fluoropyrrolidine-2-carbonitrile salicylate]: 3.22 nM.
Turning to `N#C[C@@H]1C[C@H](F)CN1C(=O)CN[C@H]1CC[C@@H](Cn2cncn2)C1` [Example-52, (2S,4S)-1-{2-[(1S,3R)-3-(1H-1,2,4-Triazol-1-ylmethyl)cyclopentylamino]acetyl}-4-fluoropyrrolidine-2-carbonitrile], the IC50 stood at 3.54 nM.
Regarding `N#C[C@@H]1C[C@H](F)CN1C(=O)CN[C@@H]1CC[C@@H](Cn2cncn2)C1` [Example-53, (2S,4S)-4-Fluoro-1-{2-[(1R,3R)-3-(1H-1,2,4-Triazol-1-ylmethyl)cyclopentylamino]-acetyl}pyrrolidin-2-carbonitrile], the IC50 was found to be 5.12 nM.
On to `N#C[C@@H]1CCCN1C(=O)CN[C@H]1CC[C@@H](Cn2nccn2)C1` [Example-56, (2S)-1-{2-[(1S,3R)-3-(2H-1,2,3-Triazol-2-ylmethyl)cyclopentylamino]acetyl}-pyrrolidine-2-carbonitrile], for which the half-inhibitory concentration (IC50) was found to be 78.9 nM.
Take `N#C[C@@H]1C[C@H](F)CN1C(=O)CN[C@H]1CC[C@@H](Cn2ccnn2)C1` [Example-57]: the IC50 came out at 5.88 nM.
For `N#C[C@@H]1C[C@H](F)CN1C(=O)CN[C@H]1CC[C@@H](Cn2nccn2)C1` [Example-58, (2S,4S)-1-{2-[(1S,3R)-3-(2H-1,2,3-Triazol-2-ylmethyl)cyclopentylamino]acetyl}-4-fluoropyrrolidine-2-carbonitrile], the IC50 stood at 10.6 nM.
As to `N#C[C@@H]1CCCN1C(=O)CN[C@@H]1CC[C@H](Cn2cnnn2)C1` [Example-59, (2S)-1-{2-[(3S,1R)-3-[1H-1 ,2,3,4-Tetrazol-1-ylmethyl]cyclopentylamino]acetyl}-pyrrolidine-2-carbonitrile], the IC50 was determined as 9.12 nM.
In the case of `N#C[C@@H]1CCCN1C(=O)CN[C@@H]1CC[C@H](Cn2cnnn2)C1` [Example-60, (2S)-1-{2-[(3S,1R)-3-(1H-1,2,3,4-Tetrazol-1-ylmethyl)cyclopentylamino]acetyl}-pyrrolidine-2-carbonitrile maleate], the IC50 amounted to 4.12 nM.
